Entries after “also recorded” stand apart in the source; their conditions may differ.
Columns and labels:
[1] = tested on: MM1.S cells; experiment: Timecourse of apoptosis and cell death by Annexin V and DAPI flow cytometry; type: cell-based
Excerpt: FIG. 2A depicts the timecourse of induction of apoptosis and cell death by omacetaxine in MM1.S cells as measured by Annexin V and DAPI staining by flow cytometry.
FIG. 10A depicts the timecourse of induction of apoptosis and cell death by pomalidomide in MM1.S cells as measured by annexin V and DAPI staining by flow cytometry.

[2] = tested on: bone marrow plasma cells from normal donors; experiment: Sensitivity of healthy donor bone marrow plasma cells; type: cell-based; conditions: 50 nM, 48 h incubation
[3] = tested on: MM cell lines; experiment: Two-drug combination matrix in MM cell lines, ZIP synergy; type: cell-based
[4] = tested on: BCL2; experiment: Quantitative intracellular flow cytometry of BCL2; type: cell-based; conditions: 50 nM, 6 h
Protocol: Quantitative flow cytometry was used to measure MCL1 and BCL2 densities per cell. Anti-MCL1 and anti-BCL2 antibodies were labeled with Alexa Fluor 647 (Molecular Probes/life Technologies) according to manufacturer's instructions. Intracellular staining of MCL1 and BCL2 was conducted following permeabilization with the Cytofix/Cytoperm kit (BD). Mean fluorescence intensity was converted to molecules of equivalent soluble fluorochrome (MESF) by generating a standard curve with Quantum™ beads (Bangs Labs, Fishers, Ind.). The fluorophore-to-antibody ratio of the labeled antibodies was determined using Simply Cellular® anti-mouse IgG beads (Bangs Labs). Finally, conversion of MESF to cell surface antigen density was calculated by dividing by the fluorophore-to-antibody ratio.

[5] = tested on: protein translation in MM cell lines and primary MM cells; experiment: OP-Puro protein translation assay in vitro; type: cell-based
Protocol: To examine whether myeloma cells depend on inherently high protein synthesis, the O-Propargyl-puromycin (OP-Puro) assay was used to measure the rate of amino-acid incorporation into translating ribosomes by flow cytometry.
Protein synthesis levels were determined in vitro utilizing the puromycin analog O-propargyl-puromycin (OP-Puro) in the protein synthesis assay kit (Cayman Chemical) according to manufacturer instructions. For in vivo protein synthesis, engrafted NSG mice were injected IP with 500 μg puromycin (Gibco), then euthanized after 1.5 h, marrow was flushed, and cells stained with anti-puromycin antibody (12D10, Alexa-488, Millipore Sigma), followed by flow cytometry.

[6] = tested on: primary MM cells from patient bone marrow aspirates; experiment: cells
Protocol: The effect of omacetaxine in primary patient samples was tested by incubating marrow mononuclear cells (MNCs) from patient bone marrow aspirates for 48 h and measuring the number of surviving MM cells by multiparameter flow cytometry.
De-identified primary myeloma samples were thawed in a 37° C. water bath and then incubated with 100 μg DNase I (Sigma-Aldrich) for 90 sec. Samples were washed twice with 10 mL Dulbecco's Phosphate Buffered Saline without calcium and magnesium (DPBS). Cells were cultured in RPMI1640 medium containing L-glutamine with 10% FBS and 100 U/mL penicillin, 100 ug/mL streptomycin (Thermo Fisher Scientific), and 2 ng/mL interleukin 6 IL-6 (PreproTech) at 37° C. for 2 h. Cells were then transferred to 96-well plates at […] cells/mL (90,000 MNCs per well) and treated for 48 h. Stock solutions of drug were prepared at 10 mM in dimethylsulfoxide (DMSO) and stored at −20° C. until use.
After 48 h treatment, the primary samples were washed in 1× cold DPBS and re-suspended in BD Brilliant Stain Buffer (BD Biosciences, San Jose Calif.) in a 96-well V-bottom plate. Cells were treated with FcR Blocking Reagent (Miltenyi Biotec, San Diego Calif.) for 5 min and then surface stained with anti-CD19-BV786 anti-CD45-BV510, anti-CD38-PerCP-Cy5.5, anti-CD138-BV421, and anti-CD319-Alexa647 or anti-CD46-Alexa647 antibodies for 10 min on ice. Intracellular staining with anti-kappa-BV605 and anti-lambda-PE light chains was performed after paraformaldehyde fixation and permeabilization. All flow cytometry antibodies were purchased from BD Biosciences. After staining, samples were washed and resuspended with 100 μl DPBS containing 2% FBS (FACS buffer). Viability staining was done using the LIVE/DEAD Fixable Near-IR Dead Cell Stain Kit (Invitrogen, Carlsbad Calif.) by adding 1 μl of 10-fold diluted stain to each well. Flow cytometry data was collected using a BD FACSCelesta Multicolor Cell Analyzer (BD Biosciences, San Jose Calif.) equipped with a HTS. For each sample a fixed volume of 175 μL was collected by the HTS. Flow cytometry data analysis was completed using FlowJo software (FlowJo LLC, Ashland Oreg.). Myeloma populations were analyzed by gating CD19− CD45+/−CD38+ CD138+ based on the cells expressing clonal light chain restriction in each sample.

[7] = tested on: c-MYC; experiment: Quantitative flow cytometry of c-MYC antigen density; type: cell-based; conditions: 24 h treatment
[8] = tested on: MM cell lines (H929, MM.1S, U266); experiment: Seahorse glycolysis stress test (ECAR); type: cell-based; conditions: after 4 h
Protocol: MM cell lines were incubated with pomalidomide for 24 h, omacetaxine for 4 h, or in staggered combination. The cells were washed and resuspended in Agilent Seahorse XF DMEM Medium, pH 7.4 (Agilent Technologies, Santa Clara, Calif.). Glycolytic flux, extracellular acidification rate (ECAR) was measured on a Seahorse XFe96 Analyzer using the Seahorse XF Glycolysis Stress Test Kit according to manufacture instructions (Agilent Technologies).

SMILES: COC(=O)C[C@](O)(CCCC(C)(C)O)C(=O)O[C@@H]1C(OC)=C[C@]23CCCN2CCc2cc4c(cc2[C@H]13)OCO4 [omacetaxine, Omacetaxine mepesuccinate]
- time at which cell death began [1]: 24 h
- time at which induction of apoptosis started [1]: 2 h
- cytotoxicity to normal plasma cells [2]: cytotoxic
- synergy with CC-220 ([3]; H929 cells): synergistic
- combination with dexamethasone ([3]; MM.1S cells): synergistic
- ZIP δ-score for synergy with Len ([3]; combination with lenalidomide, MM.1S cells, 96 h): 13.89
- ZIP δ-score for synergy with Pom ([3]; omacetaxine with pomalidomide, MM.1S cells, 96 h): 11.24
- synergy with the PI bortezomib ([3]; three MM cell lines (U266, MM.1S, H929)): lack of synergy; also recorded: no significant enhanced activity
- Bcl-2 level in myeloma cells [4]: does not decrease
- translation in primary MM samples after treatment ([5]; 50 nM, 2.5 h, 14 primary samples, to near MNC levels): significantly reduced
- EC50 ([5]; Homo sapiens, NCI-H929, 2.5 h, H929 MM cell line and primary patient MM cells, read-out: EC50 of inhibition of protein translation): 9 nM
- ability to inhibit translation in myeloma cell lines ([5]; omacetaxine 50 nM 2.5 h, bortezomib 6 h, 24 h, 48 h): observed across all myeloma cell lines tested
- cytotoxicity in relation to MCL1 priming (BH3 profiling) of primary samples [6]: potent anti-myeloma activity in samples that were not MCL1 primed
- patient samples with >50% reduction in viable MM cells (39/50) ([6]; 50 nM, 48 h, 50 patient samples): 78%
- cross-resistance in relapsed/refractory patients resistant to PI and IMiDs ([6]; 50 nM, 48 h ex vivo): did not show cross-resistance
- EC50 ([6]; Homo sapiens, 48 h, read-out: EC50 of decrease in MM cell viability ex vivo): 25 to 100 nM
- c-MYC protein level in MM cell lines [7]: decreases
- effect on metabolism of myeloma cell lines (Seahorse, ECAR) [8]: shut down metabolism
